Laboratory results as given in patent publication US10174002B2, “Pyridine derivatives as CFTR modulators” (NuBridge BioSciences, priority 2015, dated 2019).

target: T1, ΔF508 mutant CFTR (Homo sapiens, UniProt P13569, DEL508-508); experiment: Fluorescence Assay of ΔF508 mutant CFTR activity (halide-sensitive YFP quenching by iodide influx in FRT cells); format: cell-based; set-up: key: fold of mean activity with forskolin alone (I− quenching rate); details: test compounds 20 μM with forskolin 20 μM, 20 min; FRT cells expressing ΔF508-CFTR and YFP-H148Q/I152L, incubated at 27° C. 20-24 h; rate of fluorescence quenching by I−, normalized to mean activity with forskolin alone
T1 construct: expressed in transfected cells; host or cells: Fischer rat thyroid (FRT) cells, co-expressing the halide-sensitive YFP-H148Q/I152L
T1 sequence (P13569 with tags, fused parts or gaps DEL508-508): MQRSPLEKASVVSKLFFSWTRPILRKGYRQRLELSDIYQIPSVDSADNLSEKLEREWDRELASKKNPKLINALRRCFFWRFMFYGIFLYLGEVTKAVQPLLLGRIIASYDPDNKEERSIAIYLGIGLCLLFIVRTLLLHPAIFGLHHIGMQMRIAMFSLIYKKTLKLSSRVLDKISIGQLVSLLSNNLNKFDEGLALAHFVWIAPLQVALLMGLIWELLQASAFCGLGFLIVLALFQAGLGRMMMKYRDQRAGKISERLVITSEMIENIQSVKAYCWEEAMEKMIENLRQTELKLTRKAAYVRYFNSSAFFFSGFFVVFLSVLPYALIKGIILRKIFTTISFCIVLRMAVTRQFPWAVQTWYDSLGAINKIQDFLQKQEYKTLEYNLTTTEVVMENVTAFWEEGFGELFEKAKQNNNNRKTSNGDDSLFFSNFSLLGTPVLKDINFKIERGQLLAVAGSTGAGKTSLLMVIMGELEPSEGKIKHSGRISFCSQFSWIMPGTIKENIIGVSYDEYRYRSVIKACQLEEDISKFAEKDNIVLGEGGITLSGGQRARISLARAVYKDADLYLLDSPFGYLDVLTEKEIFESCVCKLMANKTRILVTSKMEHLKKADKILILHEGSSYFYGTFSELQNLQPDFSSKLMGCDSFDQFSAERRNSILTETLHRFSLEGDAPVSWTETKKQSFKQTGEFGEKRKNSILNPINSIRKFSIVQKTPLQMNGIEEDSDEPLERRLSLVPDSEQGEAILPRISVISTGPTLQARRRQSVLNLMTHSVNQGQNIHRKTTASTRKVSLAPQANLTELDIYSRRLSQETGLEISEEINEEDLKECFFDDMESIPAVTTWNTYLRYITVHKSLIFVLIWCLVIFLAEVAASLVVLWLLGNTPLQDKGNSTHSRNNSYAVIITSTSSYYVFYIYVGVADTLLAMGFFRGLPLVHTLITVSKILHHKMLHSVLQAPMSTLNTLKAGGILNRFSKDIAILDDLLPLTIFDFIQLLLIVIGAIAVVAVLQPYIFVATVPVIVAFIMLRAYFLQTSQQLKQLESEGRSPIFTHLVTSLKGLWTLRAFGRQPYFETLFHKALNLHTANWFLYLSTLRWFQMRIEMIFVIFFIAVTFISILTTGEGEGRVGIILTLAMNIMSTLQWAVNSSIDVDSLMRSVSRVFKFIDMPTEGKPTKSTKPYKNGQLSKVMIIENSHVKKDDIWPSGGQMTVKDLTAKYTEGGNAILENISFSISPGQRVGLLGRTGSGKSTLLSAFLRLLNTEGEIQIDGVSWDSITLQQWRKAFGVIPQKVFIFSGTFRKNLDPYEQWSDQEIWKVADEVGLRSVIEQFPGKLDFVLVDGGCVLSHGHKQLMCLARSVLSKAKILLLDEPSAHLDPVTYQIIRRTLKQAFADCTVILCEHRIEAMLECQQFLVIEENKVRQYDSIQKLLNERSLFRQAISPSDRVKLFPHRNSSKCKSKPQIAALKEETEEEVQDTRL
Text: The ΔF508 mutant CFTR activities of the CFTR modulators are detected using the Fluorescence Assay developed by Pedemonte (Pedemonte N., et al., Antihypertensive 1,4-dihydropyridines as correctors of the cystic fibrosis transmembrane conductance regulator channel gating defect caused by cystic fibrosis mutations, Mol. Pharmacol., 2005, 68, 1736-1746).
Fischer rat thyroid (FRT) cells, stably transfected with ΔF508 were retransfected with the YFP-H148Q/I152L fluorescent protein. The cells were plated (100,000 cells/well) on black 96-well microplates with clear plastic bottom (Corning Life Sciences, Acton, Mass.).
The 96-well microplates containing FRT cells expressing F508-CFTR and the halide-sensitive YFP were incubated at 27° C. for 20 to 24 h to allow rescue of the mutant protein to the plasma membrane. After incubation, cells were washed with PBS (containing 137 mM NaCl, 2.7 mM KCl, 8.1 mM Na2HPO4, 1.5 mM KH2PO4, 1 mM CaCl2, and 0.5 mM MgCl2) and stimulated for 20 min with forskolin (20 μM) and test compounds (20 μM) in a final volume of 60 μl. Microplates were then transferred to a microplate reader for CFTR activity determination. Each assay consisted of a continuous 14-s fluorescence reading (5 points per second) with 2 s before and 12 s after injection of 165 μl of an iodide-containing solution (PBS with Cl^− replaced by I^−). Final iodide concentration in the wells was 100 mM. […] To determine I^− influx rate, the final 11 s of the data for each well were fitted with an exponential function to extrapolate initial slope. CFTR activity was determined by measuring the rate of fluorescence quenching induced by extracellular addition of I^−. Data are normalized to the mean activity measured in the presence of forskolin alone.

Row | Structure (SMILES) | CFTR Activity
1 | Cl.NCC(CCl)COc1ccncc1NC(=O)c1ccc(C(F)(F)F)c(-c2c(F)cccc2F)n1 (stereo not drawn) [Example 54, N-(4-(3-amino-2-(chloromethyl)propoxy)pyridin-3-yl)-6-(2,6-difluorophenyl)-5-(trifluoromethyl)picolinamide hydrochloride] | 1.8
2 | Cl.O=C(Nc1cnccc1OC1CCNC1)c1ccc(F)c(-c2c(F)cccc2F)n1 (stereo not drawn) [Example 4, 6-(2,6-difluorophenyl)-5-fluoro-N-(4-(pyrrolidin-3-yloxy)pyridin-3-yl)picolinamide hydrochloride] | 0.9
3 | Cl.NC1CCCC(Oc2ccncc2NC(=O)c2ccc(F)c(-c3c(F)cccc3F)n2)C1 (stereo not drawn) [Example 11, N-(4-((3-aminocyclohexyl)oxy)pyridin-3-yl)-6-(2,6-difluorophenyl)-5-fluoropicolinamide hydrochloride] | 3.1
